# Measured values reported in patent US20240150839A1, “METHODS FOR PREDICTING RESPONSIVENESS OF PROSTATE CANCER PATIENTS TO PARP INHIBITORS” (Memorial Sloan Kettering Cancer Center, priority 2019, published 2024).
# Experiments:
# Format in all cases: cell-based, human
# BRCA2-null LNCaP cells [1] = assay: Cell growth (BrdU, crystal violet, MTT) of BRCA2 CRISPR-edited LNCaP cells with enzalutamide; settings: BRCA2-null LNCaP vs scr control; complete medium, 7 days (FIGS. 1E, 7D, 7F)
# Method: Cells infected with scrambled (scr) gRNA were used as a negative control. Cas9 and RHoGDI served as loading controls. […] Nuclei were stained with DAPI (blue). […] P-values were determined by Student's t-test. ***P<0.001. […] Equivalent volume of DMSO was used as placebo treatment. Cell growth was measured by BRDU incorporation assay (see Example 1) (±SD); P-values were determined by Student's t-test.***P<0.001. […] Parental LAPC4 cells were transiently transfected with BRCA2-specific SMARTpool siRNA for 96 hours. Total RNA was isolated, and BRCA2 mRNA was analyzed by qPCR. Scrambled SMARTpool siRNA-transfected cells were used as control (top). […] Cell growth was measured by MTT assay; SD, p-values were determined by Student's t-test. […]
# Cells infected with scrambled (scr) gRNA were used as control. […] Genotypes are detected by PCR amplification followed by being treated with T7 endonuclease. […] Cell growth was measured by MTT assay (see Example 1); SD, P-values determined by Student's t-test. *P<0.05, **P<0.01, ***P<0.001. […] Cell growth was measured by crystal violet staining assay (see Example 1) (±SD); P-values determined by Student's t-test. […] Cell growth was measured by MTT assay (see Example 1) (±SD); P-values determined by Student's t-test. […] Total RNA was isolated, and BRCA2 mRNA was analyzed by qPCR. […] Cell growth was measured by MTT assay; SD, P-values determined by Student's t-test. […]
# [2] = tested on: BRCA2 SMARTpool siRNA-transfected LNCaP cells; assay: MTT cell growth of BRCA2 siRNA-transfected LNCaP cells with enzalutamide; settings: BRCA2 siRNA LNCaP vs scrambled siRNA; ENZ 20 μM, 96 hours post transfection (FIG. 7G)
# Method: Cells infected with scrambled (scr) gRNA were used as control. Equal amount of proteins was loaded in WedgeWell 6% gel and western blot was performed. ˜400 kDa BRCA2 band is indicated by arrow. GAPDH served as loading controls for western blot and qPCR. […] Genotypes are detected by PCR amplification followed by being treated with T7 endonuclease. Wt and mutant BRCA2 are indicated by red and green arrows, respectively. […] Equivalent volume of DMSO was used as placebo treatment. Cell growth was measured by MTT assay (see Example 1); SD, P-values determined by Student's t-test. *P<0.05, **P<0.01, ***P<0.001. […] Cell growth was measured by crystal violet staining assay (see Example 1) (±SD); P-values determined by Student's t-test. […] Cell growth was measured by MTT assay (see Example 1) (±SD); P-values determined by Student's t-test. […] Total RNA was isolated, and BRCA2 mRNA was analyzed by qPCR. […] Cell growth was measured by MTT assay; SD, P-values determined by Student's t-test. […]
# (§1) Cell Proliferation Assay by MTT, BrdU and Crystal Violet. […] MTT crystals were dissolved in isopropanol and absorbance was measured in a BioTek plate reader at […] and represented graphically.
# [3] = tested on: BRCA2 SMARTpool siRNA-transfected LAPC4 cells; assay: MTT cell growth of BRCA2 siRNA-transfected LAPC4 cells with enzalutamide; settings: BRCA2 siRNA LAPC4 vs scrambled siRNA; ENZ 20 μM, 72 hours after transfection (FIG. 1F)
# Method: Cells infected with scrambled (scr) gRNA were used as a negative control. Cas9 and RHoGDI served as loading controls. […] Nuclei were stained with DAPI (blue). […] P-values were determined by Student's t-test. ***P<0.001. […] Equivalent volume of DMSO was used as placebo treatment. Cell growth was measured by BRDU incorporation assay (see Example 1) (±SD); P-values were determined by Student's t-test.***P<0.001. […] Parental LAPC4 cells were transiently transfected with BRCA2-specific SMARTpool siRNA for 96 hours. Total RNA was isolated, and BRCA2 mRNA was analyzed by qPCR. Scrambled SMARTpool siRNA-transfected cells were used as control (top). BRCA2- or scrambled SMARTpool siRNA-transfected LAPC4 cells were cultured in charcoal-stripped medium (CSS) or complete medium supplemented with enzalutamide (ENZ; 20 μM) for 72 hours after transfection (bottom). Equivalent volume of DMSO was used as placebo treatment. Cell growth was measured by MTT assay; SD, p-values were determined by Student's t-test. […] Control and CRISPR-edited LNCaP cells (10^3 cells/well) were mixed with Matrigel, and 3D cell cultures (organoids) were grown for 7 days in androgen-depleted, growth factor-enriched media. […]
# as §1
# LNCaP-BRCA2-RB1 cells = assay: MTT cell growth with PARP inhibitors; settings: LNCaP-BRCA2-RB1 vs BRCA2-null LNCaP; olaparib 3 μM, talazoparib 0.005 μM (FIG. 2E)
# Method: (§2) Scr-CRISPR and BRCA2-CRISPR2 cells were also transfected with non-targeting shRNA (scr-Sh) for control of shRNA. RHoGDI served as the loading control. […] Equivalent volume of DMSO was used as placebo treatment. Cell growth was measured by MTT assay; SD, p-values were determined by Student's t-test. […] FIG. 2C (2nd and 3rd rows) show the immunofluorescence (400× magnification) of F-actin filament stained with phalloidin in indicated CRISPR/shRNA-infected LNCaP cells. Nuclei were stained with DAPI (blue). […] 5×10^3 indicated cells were plated on the top of Boyden chamber (see Example 1) in serum-free media; 10% serum in the bottom chamber was used as chemo-attractant. After 48 hours, cells in the lower side of the chamber were fixed, stained, and photographed (100× magnification). […] Nuclei were stained with DAPI (blue). […] The graphs show cell growth measured by MTT assay (±SD); P-values determined by Student's t-test. […] RNA sequencing was analyzed by Partek.
# (§3) To generate BRCA2-RB1 knockout-knockdown LNCaP cells, parental LNCaP cells were first infected with lentivirus containing BRCA2 gRNA or scr gRNA. Pooled population of the stable cells were established by puromycin selection and analyzed by western blot and qPCR. BRCA2-knockout or scr LNCaP cells were infected with lentivirus containing RB1 shRNA followed by hygromycin selection. BRCA2-knockout or scr (gRNA) LNCaP cells also infected with lentiviral non-targeting shRNA (scr-shRNA) were used as control. Cells within 4-10 passages after stable selection were used for the following experiments.
# (§4) Cell Proliferation Assay by MTT, BrdU and Crystal Violet. For MTT assay, cells were plated at 2.5×10^3 per well in 96-well plates in complete media (10% FBS) or media supplemented with 10% charcoal-stripped serum. Cells were either treated with DMSO or with indicated inhibitors. After indicated times, cells were incubated in 0.5 mg/mL MTT (Invitrogen) for 1 hour at 37° C. MTT crystals were dissolved in isopropanol and absorbance was measured in a BioTek plate reader at […] and represented graphically.
# [4] = tested on: RB1 knockdown LNCaP cells; assay: MTT cell growth with PARP inhibitors; settings: RB1 knockdown vs control LNCaP cells; olaparib 3 μM, talazoparib 0.005 μM (FIG. 2E)
# Method: as §2, §3, §4
# BRCA2-null RWPE1 cells = assay: MTT cell growth with olaparib; settings: BRCA2-null vs control RWPE1; 3 μM and 10 μM olaparib, 7 days (FIG. 3G)
# Method: Scr-CRISPR and BRCA2-CRISPR2 cells were also transfected with non-targeting shRNA (scr-Sh) for control of shRNA. GAPDH served as the loading control. […] Nuclei were stained with DAPI (blue). […] Control cells were transfected with empty vector. […] GAPDH served as the loading control. […] LNCaP cells were used as control. GAPDH served as the loading control. […] Nuclei were stained with DAPI (blue). […] Equivalent volume of DMSO was used as placebo treatment. Cell growth was measured by MTT assay; SD, P-values determined by Student's t-test. […] LNCaP-BRCA2-RB1 or control cells were incubated in charcoal-stripped medium (CSS) for 24 hours followed by treatment with 1 nM R1881 for another 48 hours (in CSS). […] After 24 hours, cells in the lower side of the chamber were fixed, stained, photographed in 100× magnification (top panel), and counted and represented in the form of the bar graph (bottom panel). P-values were determined by Student's t-test.
# (§5) To generate BRCA2 knockout RWPE1 cells, BRCA2 gRNA2 was cloned into LentiCRISPRv2-GFP backbone which constitutively expresses Cas9 and GFP. Lentiviral infected cells were selected by FACS sorting for GFP positive cells (twice) and analyzed by western blot. […] Loss of BRCA2 in the pooled populations of LNCaP cells was analyzed by western blot using BRCA2-specific antibodies and this pooled population of cells was used for the following experiments. […]
# MSK-PCa1 organoid = assay: MTT growth of mCRPC organoids with PARPi; settings: compared to benign organoid; 3 days (FIG. 6E)
# Text: (§6) Near-diploid benign prostate organoid is used as a control. […] GAPDH served as the loading control. […] The graphs show cell growth measured by MTT assay (±SD); P-trends determined by 2-way ANOVA.
# (§7) Cell Culture. Human prostate cancer cells LNCaP, 22RV1, DU145, PC3, and VCaP were obtained from ATCC (Manassas, VA). LNCaP-C42 cells were obtained from VitroMed (Burlington, NC). The LNCaP-Abl cell line, E006AA-T cells, PC3M LAPC4 cell line were obtained. These cells were maintained in 10% FBS (LNCaP, LNCaP-C42, LAPC4, VCaP, 22RV1, DU145, PC3, PC3M, and E006AA) or 10% charcoal-stripped serum (LNCaP-Abl) supplemented with 2 mM of L-glutamine and 1×antibiotic/antimycotic (Gemini Bio-Products, Sacramento, CA) at 37° C. in 5% CO2. Human prostate epithelial cell RWPE1 was obtained from ATCC and cultured in keratinocyte serum-free medium (Thermo Fisher Scientific, Waltham, MA) at 37° C. in 5% CO2. Cells were authenticated by human short tandem repeat profiling at the MSK Integrated Genomics Operation Core. Patient-derived human prostate cancer organoids were cultured as described. Gao et al., Cell 159:176-87 (2014).
# as §4
# MSK-PCa3 organoid = assay: MTT growth of mCRPC organoids with PARPi; settings: compared to benign organoid; 3 days (FIG. 6E)
# Text: as §6, §7, §4
# BRCA2-null LNCaP cells [5] = assay: MTT cell growth of BRCA2 CRISPR-edited LNCaP cells with PARP inhibitors or cisplatin; settings: BRCA2 knockout LNCaP vs control gRNA (scr) cells; complete medium, 6 days (FIG. 7C)
# Method: Cells infected with scrambled (scr) gRNA were used as control. Equal amount of proteins was loaded in WedgeWell 6% gel and western blot was performed. ˜400 kDa BRCA2 band is indicated by arrow. GAPDH served as loading controls for western blot and qPCR. […] Genotypes are detected by PCR amplification followed by being treated with T7 endonuclease. Wt and mutant BRCA2 are indicated by red and green arrows, respectively. […] Equivalent volume of DMSO was used as placebo treatment. Cell growth was measured by MTT assay (see Example 1); SD, P-values determined by Student's t-test. *P<0.05, **P<0.01, ***P<0.001. FIGS. 7D-7E show the growth curve (FIG. 7D) and a bar graph (FIG. 7E) representing the cell growth of LNCaP BRCA2 CRISPR-edited and non-targeting control gRNA (scr) infected cells in complete medium supplemented with enzalutamide (ENZ; indicated concentration) for 7 days or charcoal-stripped medium (CSS) for 5 days, respectively. Equivalent volume of DMSO was used as placebo treatment. Cell growth was measured by crystal violet staining assay (see Example 1) (±SD); P-values determined by Student's t-test. […] Equivalent volume of DMSO was used as placebo treatment. Cell growth was measured by MTT assay (see Example 1) (±SD); P-values determined by Student's t-test. […] Total RNA was isolated, and BRCA2 mRNA was analyzed by qPCR. […] Cell growth was measured by MTT assay; SD, P-values determined by Student's t-test.
# as §5, §1
compound,measurement,setting,value
CNC(=O)c1ccc(N2C(=S)N(c3ccc(C#N)c(C(F)(F)F)c3)C(=O)C2(C)C)cc1F [enzalutamide],resistance to enzalutamide (cell growth),BRCA2-null LNCaP cells [1],relative resistance
same,growth in complete media supplemented with enzalutamide,[2],resistance to androgen depletion
same,growth in complete media supplemented with enzalutamide,[3],resistance to androgen depletion
O=C(c1cc(Cc2n[nH]c(=O)c3ccccc23)ccc1F)N1CCN(C(=O)C2CC2)CC1 [olaparib],cell growth inhibition (MTT),LNCaP-BRCA2-RB1 cells,more cell growth inhibition
same,inhibitory effect on cell growth (MTT),[4],could not be detected
same,"sensitivity (cell growth, MTT)",BRCA2-null RWPE1 cells,enhanced sensitivity
same,organoid growth (MTT),MSK-PCa1 organoid,growth reduction
same,organoid growth (MTT),MSK-PCa3 organoid,growth reduction
CNCc1ccc(-c2[nH]c3cc(F)cc4c3c2CCNC4=O)cc1 [rucaparib],"sensitivity (cell growth, MTT)",BRCA2-null LNCaP cells [5],more sensitivity
